In US20240140991A1, “ANTIBIOTIC NATURAL PRODUCT ANALOGUES” (THE QUEEN'S UNIVERSITY OF BELFAST, priority 2021, published 2024):
Values after ≈ are worked out from the molar mass of the structure shown. Starred links: 1 amine or outer side, 2 acyl side, 3 side chain; linkers in the order of their positions; H or OH if unused. Positions of bridges follow the written chain, without caps; N, C: chain ends. Non-standard residues stand in square brackets, D forms with d. Residues, ends and D or L forms follow the SMILES beside them. *: point of attachment. X1 = C[C@@H](N=[N+]=[N-])[C@H](N[*:1])C(=O)[*:2]; Octanoyl(7-Me) = CC(C)CCCCCC(=O)*; dOrn = NCCC[C@@H](N)C(=O)O; Octanoyl = CCCCCCCC(=O)*; Orn = NCCC[C@H](N)C(=O)O; Dap = NC[C@H](N)C(=O)O; Alloc = C=CCOC(=O)*; OAll = C=CCO*

Test system: Escherichia coli ATCC 25922
Assay type: cell-based
Conditions: ATCC 25922
Description: Minimum inhibitory concentration (MIC) was determined by broth microdilution according to CLSI guidelines. Blood agar plates were inoculated with glycerol stocks of Escherichia coli ATCC 25922, E. coli ATCC 25922 MCR-1, E. coli MCR-1 (clinical isolate from Utrecht Medical Center, NL), E. coli EQAS MCR-2 (clinical isolate from Wageningen University and Research, NL), Kiebsielia pneumoniae ATCC 11228, K. pneumoniae ATCC 13883, K. pneumonia 2048 (clinical isolate from Vrije Universiteit Amsterdam Medical Center, NL), K. pneumonia JS-123 (clinical isolate from Utrecht Medical Center, NL), Acinetobacter baumannii ATCC 17961, A. baumannil ATCC 17978, A. baumannii 2018-006 (clinical isolate from Rijksinstituut voor Volksgezondheid en Milieu, NL), A. baumannii MDR (clinical isolate from Vrije Universiteit Amsterdam Medical Center, NL), Pseudomonas aeruginosa ATCC 27853, P. aeruginosa PAO1, P. aeruginosa NRZ-03961 (Reference strain from Das Nationale Referenzzentrum für gramnegative Krankenhauserreger, DE), P. aeruginosa M-120 (clinical isolate from Leiden University Medical Center, NL) and Staphylococcus aureus USA300 (clinical isolate from Texas Children's Hospitalm, USA). E. coli 25922 MCR1 was grown on LB agar supplemented with kanamycin. The inoculated agar plates were then incubated for 16 hours at 37° C. Individually grown colonies were subsequently used to inoculate 3 mL aliquots of TSB that were then incubated at 37° C. with shaking at 220 rpm. In parallel, the compounds to be assessed were serially diluted with Mueller-Hinton broth (MHB) in polypropylene 96-well plates (50 μL in each well). Once the OD600 of the bacterial suspensions reached 0.5, the bacteria were diluted with MHB (final concentration 2×10^5 CFU mL^−1) and added to the microplates containing the test compounds (50 μL to each well, final volume: 100 μL). The well-plates were sealed with an adhesive membrane and after 16 hours of incubation at 37° C. with shaking at 220 rpm the wells were visually inspected for bacterial growth. MIC values were defined as the lowest concentration of the compound that prevented visible growth of bacteria.

Row | Compound | Minimum inhibitory concentration (MIC)
1 | CC[C@H](C)[C@H](NC(=O)[C@@H](NC(=O)[C@H](Cc1c[nH]c2ccccc12)NC(=O)[C@@H](CCCN)NC(=O)CNC(=O)[C@H](CCCN)NC(=O)[C@@H](CCCN)NC(=O)[C@@H](Cc1c[nH]c2ccccc12)NC(=O)[C@@H](Cc1ccc(O)cc1)NC(=O)[C@@H](CO)NC(=O)CCCCCC(C)C)[C@@H](C)N=[N+]=[N-])C(=O)N[C@@H](CC(N)=O)C(=O)NCC(=O)NCC(N)=O [MeDap(N3)9-CONH2] ({Octanoyl(7-Me)}-[dS][dY][dW][dOrn][Orn]G[dOrn]W[X1]INGG-NH2) | 2 µg/mL (≈ 1.21 µM)
2 | C=CCOC(=O)NC[C@H](NC(=O)[C@H](Cc1c[nH]c2ccccc12)NC(=O)[C@@H](CCCN)NC(=O)CNC(=O)[C@H](CCCN)NC(=O)[C@@H](CCCN)NC(=O)[C@@H](Cc1c[nH]c2ccccc12)NC(=O)[C@@H](Cc1ccc(O)cc1)NC(=O)[C@@H](CO)NC(=O)CCCCCCC)C(=O)N[C@H](C(=O)N[C@@H](CC(N)=O)C(=O)NCC(N)=O)[C@@H](C)CC [ΔG13-Dap(Alloc)9-C8] (Octanoyl-[dS][dY][dW][dOrn][Orn]G[dOrn]W[Dap](Alloc)ING-NH2) | 2 to 4 µg/mL
3 | CC[C@H](C)[C@H](NC(=O)[C@@H](NC(=O)[C@H](Cc1c[nH]c2ccccc12)NC(=O)[C@@H](CCCN)NC(=O)CNC(=O)[C@H](CCCN)NC(=O)[C@@H](C)NC(=O)[C@@H](Cc1c[nH]c2ccccc12)NC(=O)[C@@H](Cc1ccc(O)cc1)NC(=O)[C@@H](CO)NC(=O)CCCCCC(C)C)[C@@H](C)O)C(=O)N[C@@H](CC(N)=O)C(=O)NCC(=O)NCC(N)=O [Ala4 (D-Orn→D-Ala), FA-sywaOGoWTINGG-CONH2] ({Octanoyl(7-Me)}-[dS][dY][dW][dA][Orn]G[dOrn]WTINGG-NH2) | 32 µg/mL (≈ 20.3 µM)
4 | CC(C)CCCCCC(=O)N[C@H](CO)C(=O)N[C@H](Cc1ccc(O)cc1)C(=O)N[C@H](Cc1c[nH]c2ccccc12)C(=O)N[C@H](CCCN)C(=O)N[C@@H](CCCN)C(=O)NCC(=O)N[C@H](CCCN)C(=O)N[C@@H](Cc1c[nH]c2ccccc12)C(N)=O [ΔT9-G13, FA-sywoOGoW-CONH2] ({Octanoyl(7-Me)}-[dS][dY][dW][dOrn][Orn]G[dOrn]W-NH2) | 16 µg/mL (≈ 13.6 µM)
5 | CC[C@H](C)[C@@H]1NC(=O)[C@@H](NC(=O)[C@H](Cc2c[nH]c3ccccc23)NC(=O)[C@@H](CCCN)NC(=O)CNC(=O)[C@H](CCCN)NC(=O)[C@@H](CCCN)NC(=O)[C@@H](Cc2c[nH]c3ccccc23)NC(=O)[C@@H](Cc2ccc(O)cc2)NC(=O)[C@@H](CO)NC(=O)CCCCCC(C)C)[C@@H](C)OC(=O)CNC(=O)[C@H](CO)NC(=O)CNC1=O [Compound R3] ({Octanoyl(7-Me)}-[dS][dY][dW][dOrn][Orn]G[dOrn]WTIGSG; ester 9-C; N-terminus assumed) | 2 to 4 µg/mL
6 | C=CCOC(=O)CNC(=O)CNC(=O)[C@H](CC(N)=O)NC(=O)[C@@H](NC(=O)[C@H](CNC(=O)OCC=C)NC(=O)[C@H](Cc1c[nH]c2ccccc12)NC(=O)[C@@H](CCCN)NC(=O)CNC(=O)[C@H](CCCN)NC(=O)[C@@H](CCCN)NC(=O)[C@@H](Cc1c[nH]c2ccccc12)NC(=O)[C@@H](Cc1ccc(O)cc1)NC(=O)[C@@H](CO)NC(=O)CCCCCC(C)C)[C@@H](C)CC [Dap(Alloc)9-COOAll] ({Octanoyl(7-Me)}-[dS][dY][dW][dOrn][Orn]G[dOrn]W[Dap](Alloc)INGG-OAll) | 2 µg/mL (≈ 1.15 µM)
7 | CC[C@H](C)[C@H](NC(=O)[C@H](Cc1c[nH]c2ccccc12)NC(=O)[C@H](Cc1c[nH]c2ccccc12)NC(=O)[C@@H](CCCN)NC(=O)CNC(=O)[C@H](CCCN)NC(=O)[C@@H](CCCN)NC(=O)[C@@H](Cc1c[nH]c2ccccc12)NC(=O)[C@@H](Cc1ccc(O)cc1)NC(=O)[C@@H](CO)NC(=O)CCCCCC(C)C)C(=O)N[C@@H](CC(N)=O)C(=O)NCC(=O)NCC(N)=O [Trp9-CONH2] ({Octanoyl(7-Me)}-[dS][dY][dW][dOrn][Orn]G[dOrn]WWINGG-NH2) | 4 µg/mL (≈ 2.34 µM)
